Molecules are shown by their SMILES. Read-outs that look alike come from different tables or passages of the source.

Usually inhibition stands for the change of the read-out against control, counted positive when it falls.

One experiment concerns M-NFS-60 cells. The experiment is described as follows: Cell proliferation in M-NFS-60 leukemia cell line (WST-1). In kind it is cell-based. Particulars: for IC50: cell proliferation, 72 h, WST-1, read-out: M-NFS-60 IC 50. On the procedure: M-NFS-60: Exponential growing M-NFS-60 cells (ATCC, CRL-1838) were seeded at […]per 200 μl of complete medium with beta-mercaptoethanol and M-CSF (62 ng/mL) or IL34 (500 ng/mL). Twenty μL of test compound dilution were added to each well and the plates were incubated for 72 h at 37° C., 5% CO2. Untreated cells and positive control (0.5% triton X-100, for the last 15 min) served as reference for maximum and minimum viability. At the end of incubation 100 μl of supernatant were removed and replaced by 10 μl of WST-1 solution (Cell Proliferation Reagent WST-1, Roche Applied Science). After 3 h incubation at 37° C., 5% CO2, optical densities were measured at 450 nm and 620 nm for the background on microplate reader (Envision 2105, Perkinelmer).
(§1) IC50 were measured and experiments were performed at least in duplicate.
(§2) Cell-based assays of compounds CC395-CC397, depicted above, against M-NFS-60 and HEK-CSF1R have been performed following the procedures described in example 29 and 30 and compared with their quinoline analogues 32, 44 and 108.
(In general: Tetrazolium assays rely on reduction of a dye to a coloured formazan, in cell work by metabolically active cells.)

In experiment [1] the target is T1, CSF1R (Homo sapiens, UniProt P07333). The experiment is described as follows: HEK-CSF1R-STAT5-Luc reporter assay, M-CSF stimulated. In kind it is cell-based. Further details: host or cells: HEK293T (ATCC CRL-3216). As to conditions: for IC50: 600 ng/ml M-CSF, 24 h, luciferase, read-out: HEK-CSF1R-STAT5 IC 50. On the procedure: HEK-CSF1R-STAT5-Luc: Exponential growing HEK293T cells (ATCC® CRL-3216™), ectopically expressing human CSF1R receptor (Origene) and five copies of a STAT5 response element (STAT5 RE, promega) that drives transcription of the luciferase reporter were seeded at 5·10^3 per 20 μl of complete DMEM medium. The next day, 2.25 μL of test compound dilution were added to each well and stimulated with 600 ng/ml of M-CSF. The plates were incubated for 24 h at 37° C., 5% CO2. Unstimulated and stimulated cells served as reference for […]. At the end of incubation 25 μl of Steady-Glo® Luciferase Assay System (Promega) were added after 5 min of lysis, luminescence was measured on microplate reader (Envision 2105, Perkinelmer).
as §1, §2
(In general: A reporter such as luciferase makes a cellular process visible.)

Another experiment addresses PDGFRB (Homo sapiens, UniProt P09619). The experiment is described as follows: Z'-Lyte biochemical kinase assay (SelectScreen), PDGFRB. Particulars: at 50 nM, in duplicate. Here is the method: (§3) A biochemical assay was performed in order to measure the protein kinase inhibition. The kinase binding assays were performed against different kinases using the SelectScreen Biochemical Kinase Profiling Service® platform (Thermo Fisher Scientific). For all kinases, the Z′-Lyte® biochemical kinase assay technology was used. Inhibitions were measured at 50 nM in duplicate for each compound and are reported in percentage.

The target in a further experiment is PDGFRA (Homo sapiens, UniProt P16234). The experiment is described as follows: Z'-Lyte biochemical kinase assay (SelectScreen), PDGFRA. Particulars: at 50 nM, in duplicate. On the procedure:
as §3

A further experiment concerns the target T2, FLT3 (Homo sapiens, UniProt P36888).
T2 sequence (P36888 27-993): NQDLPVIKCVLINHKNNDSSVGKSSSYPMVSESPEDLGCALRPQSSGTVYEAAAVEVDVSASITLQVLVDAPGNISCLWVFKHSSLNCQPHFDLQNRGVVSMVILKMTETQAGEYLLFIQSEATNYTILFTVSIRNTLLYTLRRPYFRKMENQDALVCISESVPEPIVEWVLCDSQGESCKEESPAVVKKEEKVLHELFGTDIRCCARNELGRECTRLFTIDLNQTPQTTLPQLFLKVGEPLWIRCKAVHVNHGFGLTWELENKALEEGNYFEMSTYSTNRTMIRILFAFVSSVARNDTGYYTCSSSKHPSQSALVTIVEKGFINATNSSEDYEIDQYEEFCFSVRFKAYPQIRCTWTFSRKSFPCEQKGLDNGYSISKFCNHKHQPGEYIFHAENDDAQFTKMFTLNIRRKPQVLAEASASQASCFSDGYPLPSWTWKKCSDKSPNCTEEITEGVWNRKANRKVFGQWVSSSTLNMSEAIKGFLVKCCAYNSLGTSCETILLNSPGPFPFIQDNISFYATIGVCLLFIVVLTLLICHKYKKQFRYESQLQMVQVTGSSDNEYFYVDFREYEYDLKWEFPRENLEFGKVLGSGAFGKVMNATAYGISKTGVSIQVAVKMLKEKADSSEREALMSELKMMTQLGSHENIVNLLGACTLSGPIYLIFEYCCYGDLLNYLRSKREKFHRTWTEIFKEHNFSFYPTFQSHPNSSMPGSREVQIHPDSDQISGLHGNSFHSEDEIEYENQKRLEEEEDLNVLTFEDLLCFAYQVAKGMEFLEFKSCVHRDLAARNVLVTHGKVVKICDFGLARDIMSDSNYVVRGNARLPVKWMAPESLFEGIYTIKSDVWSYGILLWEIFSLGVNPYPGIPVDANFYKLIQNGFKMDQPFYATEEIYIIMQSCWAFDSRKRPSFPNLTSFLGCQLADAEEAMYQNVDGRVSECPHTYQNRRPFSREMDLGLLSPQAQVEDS
Briefly: Z'-Lyte biochemical kinase assay (SelectScreen), FLT3. Particulars: at 50 nM, in duplicate. On the procedure:
as §3

The target in the next experiment is Kit (Homo sapiens, UniProt P10721). The experiment is described as follows: Z'-Lyte biochemical kinase assay (SelectScreen), Kit. Particulars: at 50 nM, in duplicate. On the procedure: as §3
Experiment [2] has as its target T1, CSF1R. The experiment is described as follows: Z'-Lyte biochemical kinase assay (SelectScreen), CSF1R. Particulars: at 50 nM, in duplicate. On the procedure: as §3
Where [3] appears, read: 32 vs CC395, 44 vs CC396, 108 vs CC397.

Kit, sequence (P10721 26-976): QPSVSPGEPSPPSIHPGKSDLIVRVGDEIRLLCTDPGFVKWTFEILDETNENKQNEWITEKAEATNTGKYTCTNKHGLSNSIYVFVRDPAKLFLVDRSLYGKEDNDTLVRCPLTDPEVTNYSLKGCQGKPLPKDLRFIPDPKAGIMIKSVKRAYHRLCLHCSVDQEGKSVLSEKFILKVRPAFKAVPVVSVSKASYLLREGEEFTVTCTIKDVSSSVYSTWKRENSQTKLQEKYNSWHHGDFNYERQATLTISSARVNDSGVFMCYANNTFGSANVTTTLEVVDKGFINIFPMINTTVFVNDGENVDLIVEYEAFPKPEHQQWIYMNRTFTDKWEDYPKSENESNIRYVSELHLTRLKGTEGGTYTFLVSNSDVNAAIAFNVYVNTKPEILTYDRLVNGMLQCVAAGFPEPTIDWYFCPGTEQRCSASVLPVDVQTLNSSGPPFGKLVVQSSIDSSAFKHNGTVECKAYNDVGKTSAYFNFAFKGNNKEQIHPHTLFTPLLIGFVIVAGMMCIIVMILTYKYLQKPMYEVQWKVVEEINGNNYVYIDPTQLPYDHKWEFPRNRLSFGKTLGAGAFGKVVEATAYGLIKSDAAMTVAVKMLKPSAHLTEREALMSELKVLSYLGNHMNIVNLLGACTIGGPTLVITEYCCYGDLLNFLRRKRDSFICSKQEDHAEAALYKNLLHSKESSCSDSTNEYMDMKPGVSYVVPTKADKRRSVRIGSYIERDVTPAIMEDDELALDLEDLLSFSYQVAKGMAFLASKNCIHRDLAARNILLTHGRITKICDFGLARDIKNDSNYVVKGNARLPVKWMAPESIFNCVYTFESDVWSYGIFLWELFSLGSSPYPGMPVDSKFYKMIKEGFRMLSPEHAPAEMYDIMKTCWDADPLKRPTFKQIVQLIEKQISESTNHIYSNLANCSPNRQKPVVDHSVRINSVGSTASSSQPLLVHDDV
T1 sequence (P07333 20-972): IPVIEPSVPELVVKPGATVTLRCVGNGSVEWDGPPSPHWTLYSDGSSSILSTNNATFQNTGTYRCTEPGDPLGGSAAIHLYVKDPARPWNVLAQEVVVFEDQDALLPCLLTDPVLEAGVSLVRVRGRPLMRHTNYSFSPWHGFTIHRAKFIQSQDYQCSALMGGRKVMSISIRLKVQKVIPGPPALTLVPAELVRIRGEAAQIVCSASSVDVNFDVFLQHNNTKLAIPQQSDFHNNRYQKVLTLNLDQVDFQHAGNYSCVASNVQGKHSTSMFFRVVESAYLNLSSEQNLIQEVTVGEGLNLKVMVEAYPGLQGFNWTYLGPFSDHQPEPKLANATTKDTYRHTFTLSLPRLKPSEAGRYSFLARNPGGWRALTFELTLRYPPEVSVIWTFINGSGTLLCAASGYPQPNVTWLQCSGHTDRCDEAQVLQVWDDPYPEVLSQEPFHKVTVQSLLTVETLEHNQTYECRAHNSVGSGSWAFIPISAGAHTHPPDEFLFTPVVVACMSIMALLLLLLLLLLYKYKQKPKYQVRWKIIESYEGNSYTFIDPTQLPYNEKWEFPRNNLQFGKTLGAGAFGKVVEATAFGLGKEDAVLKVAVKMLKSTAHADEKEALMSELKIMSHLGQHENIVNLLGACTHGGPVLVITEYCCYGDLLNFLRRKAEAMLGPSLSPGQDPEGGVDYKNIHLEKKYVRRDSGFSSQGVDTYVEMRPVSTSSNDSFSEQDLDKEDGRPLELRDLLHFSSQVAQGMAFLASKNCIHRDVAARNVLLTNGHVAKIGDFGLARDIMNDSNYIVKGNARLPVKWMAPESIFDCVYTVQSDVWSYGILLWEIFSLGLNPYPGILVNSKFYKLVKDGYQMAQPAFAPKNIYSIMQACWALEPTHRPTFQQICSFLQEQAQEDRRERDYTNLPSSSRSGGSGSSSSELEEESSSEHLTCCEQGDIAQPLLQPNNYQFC
PDGFRA, sequence (P16234 24-1089): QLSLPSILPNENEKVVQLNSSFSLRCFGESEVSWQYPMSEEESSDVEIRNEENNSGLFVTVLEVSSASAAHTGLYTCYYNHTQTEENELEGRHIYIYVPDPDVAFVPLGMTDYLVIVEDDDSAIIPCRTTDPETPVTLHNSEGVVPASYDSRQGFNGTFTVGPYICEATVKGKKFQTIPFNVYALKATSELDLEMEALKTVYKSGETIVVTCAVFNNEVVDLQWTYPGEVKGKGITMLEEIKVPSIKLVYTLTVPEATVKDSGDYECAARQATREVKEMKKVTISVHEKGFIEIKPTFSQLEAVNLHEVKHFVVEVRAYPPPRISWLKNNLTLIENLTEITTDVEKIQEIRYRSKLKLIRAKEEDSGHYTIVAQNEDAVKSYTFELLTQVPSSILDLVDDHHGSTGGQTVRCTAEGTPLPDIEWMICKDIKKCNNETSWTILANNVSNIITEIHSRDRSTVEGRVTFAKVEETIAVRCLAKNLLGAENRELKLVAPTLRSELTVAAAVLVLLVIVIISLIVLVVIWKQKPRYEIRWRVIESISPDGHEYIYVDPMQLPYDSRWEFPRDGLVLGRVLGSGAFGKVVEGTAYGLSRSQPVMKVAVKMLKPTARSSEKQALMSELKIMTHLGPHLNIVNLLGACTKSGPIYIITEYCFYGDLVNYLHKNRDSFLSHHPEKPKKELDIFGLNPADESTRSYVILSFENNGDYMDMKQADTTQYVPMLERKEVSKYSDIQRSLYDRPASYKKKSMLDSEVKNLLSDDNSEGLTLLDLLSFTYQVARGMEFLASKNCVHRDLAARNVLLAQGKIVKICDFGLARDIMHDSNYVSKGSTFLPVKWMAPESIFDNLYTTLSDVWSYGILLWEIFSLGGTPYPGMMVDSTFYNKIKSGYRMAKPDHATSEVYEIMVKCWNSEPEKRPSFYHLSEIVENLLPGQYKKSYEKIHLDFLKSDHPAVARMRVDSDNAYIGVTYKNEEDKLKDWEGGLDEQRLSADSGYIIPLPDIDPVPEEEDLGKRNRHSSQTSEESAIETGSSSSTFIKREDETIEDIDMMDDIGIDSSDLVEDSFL
PDGFRB, sequence (P09619 33-1106): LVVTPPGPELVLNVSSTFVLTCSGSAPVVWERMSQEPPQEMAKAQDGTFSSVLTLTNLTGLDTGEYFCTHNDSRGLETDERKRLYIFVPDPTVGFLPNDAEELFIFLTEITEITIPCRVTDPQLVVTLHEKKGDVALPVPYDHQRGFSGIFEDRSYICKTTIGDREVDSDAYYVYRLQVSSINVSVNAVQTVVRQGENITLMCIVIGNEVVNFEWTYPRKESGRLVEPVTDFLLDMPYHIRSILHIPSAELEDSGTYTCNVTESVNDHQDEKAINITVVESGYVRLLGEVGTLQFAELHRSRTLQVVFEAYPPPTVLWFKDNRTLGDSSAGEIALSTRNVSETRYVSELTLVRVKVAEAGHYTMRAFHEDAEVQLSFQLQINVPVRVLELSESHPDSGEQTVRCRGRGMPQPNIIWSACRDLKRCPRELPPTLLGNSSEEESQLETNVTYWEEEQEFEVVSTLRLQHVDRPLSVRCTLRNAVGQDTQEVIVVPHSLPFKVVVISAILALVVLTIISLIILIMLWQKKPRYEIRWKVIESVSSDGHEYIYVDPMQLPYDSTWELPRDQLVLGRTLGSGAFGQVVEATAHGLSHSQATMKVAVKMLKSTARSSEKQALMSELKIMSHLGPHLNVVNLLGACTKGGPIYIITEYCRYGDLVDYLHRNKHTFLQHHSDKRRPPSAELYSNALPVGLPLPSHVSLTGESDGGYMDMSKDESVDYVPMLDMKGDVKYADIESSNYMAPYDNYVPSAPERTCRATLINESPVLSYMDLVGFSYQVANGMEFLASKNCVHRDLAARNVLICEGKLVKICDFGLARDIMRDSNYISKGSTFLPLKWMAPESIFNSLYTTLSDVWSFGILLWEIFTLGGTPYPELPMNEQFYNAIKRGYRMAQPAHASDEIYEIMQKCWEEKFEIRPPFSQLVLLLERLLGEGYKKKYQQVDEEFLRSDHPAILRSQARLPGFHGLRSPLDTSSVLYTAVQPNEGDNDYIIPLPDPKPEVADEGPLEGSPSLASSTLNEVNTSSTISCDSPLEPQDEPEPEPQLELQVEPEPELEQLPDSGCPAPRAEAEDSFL

For the compound `COc1cc2nccc(Oc3cccc(NC(=O)Cc4ccncc4)c3)c2cc1OC` [CC399, reference compound], the IC50 in the experiment with M-NFS-60 cells (Table 10) came to 5210 nM; at CSF1R [1] (Table 10), 3540 nM.

Take `COc1cc2nccc(Oc3cccc(CC(=O)NCc4ccncc4)c3)c2cc1OC` [CC400, reference compound]: the IC50 was found to be 4220 nM in the experiment with M-NFS-60 cells (Table 10) and 2270 nM at CSF1R [1] (Table 10).

As for `COc1cc2nccc(Oc3cccc(CC(=O)Nc4ccncc4)c3)c2cc1OC` [CC401, reference compound], the IC50 in the experiment with M-NFS-60 cells (Table 10) stood at 7510 nM; at CSF1R [1] (Table 10) it was 3850 nM.

Turning to `COc1ccc2c(Oc3cccc(C(=O)NCc4ccncc4)c3C)ncnc2c1` [CC 395, 3-(7-methoxyquinazolin-4-yl)oxy-2-methyl-N-(4-pyridylmethyl)benzamide, reference compound], the IC50 was determined as 636 nM with M-NFS-60 cells (Table 9) and 926 nM at CSF1R [1] (Table 9).

`COc1ccc2c(Oc3cccc(C(=O)NCc4ccncc4F)c3C)ncnc2c1` [CC 396, N-[(3-fluoro-4-pyridyl)methyl]-3-(7-methoxyquinazolin-4-yl)oxy-2-methyl-benzamide, reference compound]: the IC50 came out at 415 nM in the experiment on M-NFS-60 cells (Table 9) and 600 nM at CSF1R [1] (Table 9).

Consider `Cc1c(Oc2ncnc3cc(Cl)ccc23)cccc1C(=O)NCc1ccncc1` [CC 397, 3-(7-chloroquinazolin-4-yl)oxy-2-methyl-N-(4-pyridylmethyl)benzamide, reference compound], for which the IC50 in the experiment with M-NFS-60 cells (Table 9) was found to be 1260 nM; at CSF1R [1] (Table 9), 4150 nM.

As to `COc1ccc2c(Oc3cccc(C(=O)NCc4ccncc4)c3C)ccnc2c1` [compound 32, 3-[(7-methoxy-4-quinolyl)oxy]-2-methyl-N-(4-pyridylmethyl)benzamide], the values for the IC50 with M-NFS-60 cells (Table 9) and at CSF1R [1] (Table 9) were 34 nM and 26 nM, respectively.

For `COc1ccc2c(Oc3cccc(C(=O)NCc4ccncc4F)c3C)ccnc2c1` [compound 44], the “fold decrease in IC50 against M-NFS-60 compared to quinazoline-based comparative compound” value in the experiment with M-NFS-60 cells (setting [3]) is 22 fold. Also, the IC50 in the experiment on M-NFS-60 cells (Table 9) turned out to be 19 nM; at CSF1R [1] (Table 9) it was 7 nM. In addition, on CSF1R [1] (setting [3]), the “fold decrease in IC50 against HEK-CSF1R-STAT5 compared to quinazoline-based comparative compound” value came to 86 fold.

For the compound `O=C(NCc1cccc(F)c1)c1ccc(F)c(Oc2ccnc3ccccc23)c1` [compound 101], the inhibition at 0.05 µM at PDGFRB is 40%; against PDGFRA, 25%; on FLT3, 37%; against Kit it was 27%; on CSF1R [2] it was 81%.

Turning to `Cc1c(Oc2ccnc3ccccc23)cccc1C(=O)NCc1cccc(F)c1` [compound 103], the inhibition at 0.05 µM is 13% against PDGFRB; -5% against PDGFRA; 8% at FLT3; 7% on Kit; 73% against CSF1R [2].

For the compound `COc1cc2nccc(Oc3cccc(C(=O)NCc4cccc(F)c4)c3C)c2cc1OC` [compound 107], the inhibition at 0.05 µM on PDGFRB was 25%; against PDGFRA it was 22%; against FLT3, 19%; against Kit, 11%; against CSF1R [2], 85%.

Regarding `Cc1c(Oc2ccnc3cc(Cl)ccc23)cccc1C(=O)NCc1ccncc1` [compound 108, 3-[(7-chloro-4-quinolyl)oxy]-2-methyl-N-(4-pyridylmethyl)benzamide], the IC50 in the experiment with M-NFS-60 cells (Table 9) was determined as 58 nM; at CSF1R [1] (Table 9), 29 nM.

In the case of `CN(C)c1ccc2c(Oc3cccc(C(=O)NCc4ccncc4)c3)ccnc2c1` [compound 140], the inhibition at 0.05 µM on PDGFRB turned out to be 19%; at PDGFRA it was 11%; against FLT3, 8%; at Kit, 3%; at CSF1R [2], 83%.

On to `CNc1ccc2c(Oc3cc(C(=O)NCc4ccncc4)ccc3F)ccnc2c1` [compound 142], for which the inhibition at 0.05 µM against PDGFRB came to 9%; at PDGFRA, 11%; on FLT3, 9%; against Kit, 13%; against CSF1R [2], 61%.

With `CN(C)c1ccc2c(Oc3cc(C(=O)NCc4ccncc4)ccc3F)ccnc2c1` [compound 143], the inhibition at 0.05 µM on PDGFRB was determined as 32%; against PDGFRA it was 14%; at FLT3, 3%; against Kit it was 8%; on CSF1R [2], 77%.

Turning to `CNc1ccc2c(Oc3cccc(C(=O)NCc4ccncc4)c3C)ccnc2c1` [compound 148], the inhibition at 0.05 µM at PDGFRB was 12%; against PDGFRA, 4%; against FLT3, 7%; at Kit, 0%; at CSF1R [2], 75%.

For `Cc1c(Oc2ccnc3cc(N4CCC4)ccc23)cccc1C(=O)NCc1ccncc1` [compound 150], the inhibition at 0.05 µM was 15% on PDGFRB; 8% on PDGFRA; 12% on FLT3; 3% at Kit; 81% against CSF1R [2].

Take `CNc1ccc2c(Oc3cccc(C(=O)NCc4cccc(F)c4)c3C)ccnc2c1` [compound 151]: the inhibition at 0.05 µM against PDGFRB was determined as 21%; against PDGFRA it was 9%; at FLT3 it was 0%; against Kit, 4%; on CSF1R [2] it was 79%.

For `Cc1c(Oc2ccnc3cc(N(C)C)ccc23)cccc1C(=O)NCc1cccc(F)c1` [compound 152], the inhibition at 0.05 µM at PDGFRB worked out at 25%; on PDGFRA, 10%; against FLT3, 13%; against Kit, 3%; against CSF1R [2], 77%.

On to `COc1cc2nccc(Oc3cccc(C(=O)NCc4ccncc4)c3)c2cc1OC` [compound 398], for which the IC50 in the experiment with M-NFS-60 cells (Table 10) was 198 nM; on CSF1R [1] (Table 10) it was 58 nM. The “fold decrease in IC50 against M-NFS-60 compared to CC399” value with M-NFS-60 cells (vs CC399) is listed as 26 fold. Also, in the experiment on M-NFS-60 cells (vs CC400), the “fold decrease in IC50 against M-NFS-60 compared to CC400” value stood at 21 fold. For the same compound, the “fold decrease in IC50 against M-NFS-60 compared to CC401” value in the experiment on M-NFS-60 cells (vs CC401) worked out at 38 fold. For the same compound, on CSF1R [1] (vs CC399), the “fold decrease in IC50 against HEK-CSF1R-STAT5 compared to CC399” value worked out at 61 fold. Further, the “fold decrease in IC50 against HEK-CSF1R-STAT5 compared to CC400” value on CSF1R [1] (vs CC400) was 39 fold. Further, at CSF1R [1] (vs CC401), the “fold decrease in IC50 against HEK-CSF1R-STAT5 compared to CC401” value was 67 fold.

These data come from US20220388979A1, “QUINOLINE DERIVATIVES AS PROTEIN KINASE INHIBITORS” (B.C.I. PHARMA, priority 2019, published 2022).
